Measured values published in patent publication US12516034B2, “Process for preparing high-density quercetin” (TRADICHEM INDUSTRIAL SERVICES, S.L., priority 2022, dated 2026).

Tests used:
Assay type in all cases: physicochemical
[1] = Carr index (compressibility index), powder flowability; conditions: for Compressibility (Carr Index): calculated from bulk and tapped density; for Flowability (type of flow according to Table 1): classification by Carr index / Hausner ratio
Protocol: The Carr index, also called Carr's index or compressibility index, is calculated according to the following formula: Free flowing powders have smaller values of the Carr index than poor flowing powders. In general, a Carr index greater than 25 is considered to be an indication of poor flowability, and below 15, of good flowability. The relationship between Carr index and/or Hausner ratio with powder flowability is well recognized in the art, for example, as disclosed by M. E. Aulton, in “Powder flow”, chapter 12 of the well-recognized reference book in pharmaceutical technology “Aulton's Pharmaceutics. The design and manufacture of medicines”, Fifth Edition 2018, M. E. Aulton and K. M. G. Taylor, Editors, Elsevier Ltd, as summarized in Table 1: Carr index was calculated from the bulk and tapped density measured values, using the following formula: […]

[2] = Tapped density (PT-TD200 Tap Density Tester); conditions: after mechanical tapping
Protocol: On the other hand, tapped density, also called compacted density, of a powder is the ratio of the mass of the powder to the volume occupied by the powder after it has been tapped for a defined period of time. Tapped density is measured by first gently introducing a known sample mass into a graduated cylinder and carefully levelling the powder without compacting it. The cylinder is then mechanically tapped by raising the cylinder and allowing it to drop under its own weight using a suitable mechanical tapped density tester that provides a suitable fixed drop distance and nominal drop rate Bulk density and tapped density can be measured according to the method disclosed in the European Pharmacopoeia section 2.9.34 (Bulk density and tapped density of powders), for example, the bulk density may be measured using the PT-SV100 Scott Volumeter and the tapped density may be measured using the PT-TD200 Tap Density Tester (Pharma Test Apparatebau AG, Germany). The bulk density was measured using a PT-SV100 Scott Volumeter (Pharma Test) and the tapped density was measured using a PT-TD200 Tap Density Tester (Pharma Test).

[3] = Hausner ratio, powder flowability; conditions: calculated from bulk and tapped density
Protocol: Hausner ratio is also predictive of powder flow, and is calculated according to the following formula: In this case, a Hausner ratio greater than 1.34 is generally considered to be an indication of poor flowability. The relationship between Carr index and/or Hausner ratio with powder flowability is well recognized in the art, for example, as disclosed by M. E. Aulton, in “Powder flow”, chapter 12 of the well-recognized reference book in pharmaceutical technology “Aulton's Pharmaceutics. The design and manufacture of medicines”, Fifth Edition 2018, M. E. Aulton and K. M. G. Taylor, Editors, Elsevier Ltd, as summarized in Table 1: Hausner ratio was also calculated using bulk and tapped density values, according to the following formula: […]

Angle of repose = conditions: tan^-1 (height/radius) of cone after pouring
Text: The “angle of repose” is another parameter for indirectly quantifying powder flowability. It is the angle at which a material will rest on a stationary heap, specifically, is the angle formed by the heap slope and the horizontal plane. It may be calculated by different methods, commonly, just pouring the material on a flat surface. It also can be calculated as “drained angle of repose”, as the angle measured on the internal conical face of a material which has been formed when drained from an orifice of a flat-bottomed container to the horizontal. A dynamic angle of repose can also be used, which is the angle to the horizontal of the free surface formed in a relatively slowly rotating drum (Aulton, op. cit., pg. 197). In this case, the lower the value of the angle of repose, the higher the flowability of the material. It is generally considered that an angle of repose higher than 45 correlates with poor flowability, whereas an angle of repose under 30 correlates with excellent flowability. The angle of repose was determined by measuring the radius and the height of the cone formed after pouring the powder, using the formula tan^−1 (height/radius).

[4] = Solubility compared to non-compacted quercetin; conditions: compared to standard
Text: It is advantageous, as the poor solubility of quercetin is one of the drawbacks of this substance, as it impairs its biological availability and, consequently, its therapeutic activity.

[5] = Bulk density (PT-SV100 Scott Volumeter); conditions: after roller compaction vs starting non-compacted quercetin
Text: The bulk density, also called apparent density, can be defined as the ratio of the mass to the volume of an untapped powder sample, as “poured”. The bulk density is given in grams per millilitre (g/ml) and is typically calculated by “pouring” a known mass of powder into a graduated cylinder. Bulk density and tapped density can be measured according to the method disclosed in the European Pharmacopoeia section 2.9.34 (Bulk density and tapped density of powders), for example, the bulk density may be measured using the PT-SV100 Scott Volumeter and the tapped density may be measured using the PT-TD200 Tap Density Tester (Pharma Test Apparatebau AG, Germany). The bulk density was measured using a PT-SV100 Scott Volumeter (Pharma Test) and the tapped density was measured using a PT-TD200 Tap Density Tester (Pharma Test).

SMILES	Compressibility (Carr Index) [1]	Flowability (type of flow according to Table 1) [1]	Tapped density [2] [g/mL]	Hausner ratio [3]	Angle of repose (Angle of repose)	Solubility [4]	Increase of bulk density [5]
O=c1c(O)c(-c2ccc(O)c(O)c2)oc2cc(O)cc(O)c12 [Non-compacted quercetin, 3,3′,4′,5,7-pentahydroxyflavone, reference compound]	52.27	very, very poor	0.44	2.10	>45°		
O=c1c(O)c(-c2ccc(O)c(O)c2)oc2cc(O)cc(O)c12 [Compacted quercetin, 3,3′,4′,5,7-pentahydroxyflavone]	8.45	excellent	0.71	1.09	25-30°	improved	about 200%
